# System: G250 antibody
# Assay: conformational epitope mapping of carbonic anhydrase IX peptide sections on scaffolds, binding to G250 antibody
# Settings: core sequences shared by the best-binding peptides
# Protocol: Short peptide sections of CA-IX which bind to the G250 antibody were determined by means of conformational epitope mapping of carbonic anhydrase using the scaffolds shown in FIG. 2. The following 15 sequences were identified as peptide sections having the highest binding capacity: […]
sequence,measurement,value
LSTAFARV [SEQ ID NO:1],recognition by G250 antibody (rank of epitope sequence),dominantly recognized
